This note sets out measurements from patent US20050282863A1, “Novel-N substituted dihydrobenzothiepino, dihydrobenzoxepino and tetrahydro benzocyclohepta indoles as selective estrogen receptor modulators” (Council of Scientific & Industrial Research, priority 2004, published 2005).

Data set [1] deals with adult female rats. The experiment in a line: Post-coital antifertility efficacy in adult female rats. Type of data set: in vivo, rat. Conditions: daily dose 10 mg/kg, oral, days 1-7 post-coitum. An excerpt: Adult female rats are caged overnight with coeval males of proven fertility and their vaginal smears are checked on the following morning. The day of presence of spermatozoa in the vaginal smear is taken as day 1 of pregnancy. Mated rats are isolated and randomized into various treatment groups and treated orally with the compound of invention or the vehicle on days 1-7/1-5 post-coitum. Animals of all the groups are autopsied on day 10 post-coitum and number and status of corpora lutea and implantation sites in each rat are recorded. The compounds of the present invention are considered active if there is complete absence of implantations in the uterus of all rats, in comparison to presence of normal implantations in the uterus of rats of vehicle control group.

Data set [2] relates to MCF-7 cells. The experiment in a line: Antiproliferative/cytotoxic activity in cultured MCF-7 cells (SRB assay). Type of data set: cell-based. The conditions noted are these: Homo sapiens, MCF7, 48 h, read-out: LC50, Test-4; MCF-7, 48 h. As for the experimental part:
The procedure is based on the following methods: New calorimetric assay for anticancer drug screening, Skehan et al., J Natn Cancer Inst, 82,1107, 1990 and Feasibility of a high-flux anticancer drug screen using a diverse panel of cultured human tumor cell lines, J Natn Cancer Inst, 83,757, 1991.
A fully confluent flask of MCF-7 cells in trypsinized and 10^4 cells/well are plated in a 96 welled flat bottomed plate in 200 μl Minimum Essential Medium (MEM), pH 7.4 and allowed to attach for 24 h at 37° C. in a humidified CO2 incubator. Subsequently, the compound of invention dissolved in DMSO or ethanol is added at a specified concentration and further incubated for 48 h as before. The cells are then fixed in 50 μl cold 50% TCA and incubated for 1 h at 4° C. The supernatant is discarded and the plate is washed five times with deionized water and air-dried. 100 μl of 0.4% (w/v) Sulforhodamine B (SRB) in 1% acetic acid is added to each well and incubated at room temperature for 30 minutes. Unbound SRB is removed by five washes with chilled 1% acetic acid and the plate is air-dried. 200 μl of unbuffered 10 mM Tris base is added to solublize the bound stain for 5 minutes at room temperature and O.D. is read at 560 nm in a plate reader. The graph is plotted between O.D. and concentration and LC50 is calculated with respect to tamoxifen, which is used as a positive control.
(In SRB staining, fixed cells bind dye roughly in proportion to their protein.)

Data set [3] relates to chick fetal bones in culture. The experiment in a line: Inhibition in PTH-induced resorption of 45Ca from chick fetal bones in culture (antiresorptive activity in vitro). The conditions noted are these: Gallus gallus, 96 h, 100 μM; PTH-induced 45Ca resorption, 96 h culture; read-out: T/C ratio. Type of data set: cell-based. As for the experimental part: 5 μl of each concentration are used for evaluation of antiresorptive activity in vitro. In control experiments, 5 μl of appropriate solvent is used in lieu of the test compound. Femur bones are isolated from chick embryos on day 11 post-ovulation. The adhering soft connective tissue is completely removed. Each femur bone is then placed in a drop of phosphate buffered saline (PBS) and is transferred to BGJb culture medium containing ^45CaCl2 and incubated for 2 h. Labeled femur bones are washed 2-3 times with PBS and transferred to BGJb medium containing parathyroid hormone and cultured for 96 h in the presence or absence of the compound of invention or the vehicle in BGJb medium. Contralateral femur of each fetus serves as corresponding control. Culture medium with the respective treatment in each well is changed after 48 h. On termination of the culture at 96 h, bones are transferred to 0.1 N HCl for 24 h. Radioactivity due to ^45Ca in the spent medium collected at 48 and 96 h of culture and HCl extract at 96 h of culture is quantified by Liquid Scintillation Spectrophotometer in 10 ml of the scintillation fluid. Bone resorbing activity is expressed as percentage of ^45Ca released into the culture medium and the effect of the compound of invention as percent of the corresponding contra-lateral control or T/C ratio as shown below: [formula]
Appropriate solvents are selected from solvents like water, physiological saline, phosphate buffered saline, phosphate buffer, DMSO alone or in a suitable combination thereof.

For data set [4], the system named is immature ovariectomized rats. The experiment in a line: Estrogen antagonistic activity: inhibition in 17α-ethynylestradiol induced uterine weight gain in immature ovariectomized rats. The conditions noted are these: Rattus norvegicus, 72 h; daily dose 10 mg/kg with 0.02 mg/kg 17-alfa-ethynylestradiol, 3 days; read-out: Percent inhibition in 17α-ethynylestradiol induced uterine weight gain. It counts as in vivo, rat. As for the experimental part: Twenty-one-day-old immature female rats are bilaterally ovariectomized under light ether anaesthesia and after post-operative rest for 7 days, are randomized into different treatment groups. Each rat receives the compounds of the invention and 0.02 mg/kg dose of 17-alfa-ethynylestradiol in 10% ethanol-distilled water once daily for 3 consecutive days on days 28-30 of age. A separate group of animals receiving only 17-alfa-ethynylestradiol (0.02 mg/kg) in 10% ethanol-distilled water for similar duration are used for comparison. At autopsy on day 31 of age, vaginal smear of each rat is taken and uterus is carefully excised, gently blotted, weighed and fixed for histology and histomorphometry using image analysis. Inhibition in 17-alfa-ethynylestradiol-induced premature opening of vagina, cornification of vaginal epithelium, increase in uterine fresh weight, total uterine and endometrial area and uterine luminal epithelial cell height are taken as parameters for evaluation of estrogen antagonistic activity.

Data set [5] concerns immature ovariectomized rats. The experiment in a line: Estrogen agonistic activity: increase in uterine weight in immature ovariectomized rats. Type of data set: in vivo, rat. The conditions noted are these: Rattus norvegicus, 72 h, daily dose 10 mg/kg, 3 days; percent of ovariectomized + vehicle group. The protocol:
Twenty-one-day-old immature female rats are bilaterally ovariectomized under light ether anaesthesia and, after post-operative rest for 7 days, are randomized into different treatment groups. Each rat receives the compound of the invention once daily for 3 consecutive days on days 28-30 of age. A separate group of animals receiving only the vehicle for similar duration serves as control. A autopsy 24 h after the last treatment on day 31 of age, vaginal smear of each rat is taken and uterus is carefully exised, gently blotted, weighed and fixed for histology and histomorphometry using image analysis. Premature opening of vagina, cornification of vaginal epitelium, increase in uterine fresh weight, total uterine and endometrial area and uterine luminal epithelial cell height are taken as parameters for evaluation of estrogen agonistic activity in comparision to rats of vehicle control group.

Data set [6] concerns the target T1, estrogen receptors (Rattus norvegicus, UniProt P06211).
T1 construct: Aliquot of uterine cytosol (200 μl; 2 uteri per ml) prepared in TEA buffer; from tissue; host or cells: uterine cytosol of immature estradiol-primed 20-21 day old rats
T1 sequence (P06211 1-600): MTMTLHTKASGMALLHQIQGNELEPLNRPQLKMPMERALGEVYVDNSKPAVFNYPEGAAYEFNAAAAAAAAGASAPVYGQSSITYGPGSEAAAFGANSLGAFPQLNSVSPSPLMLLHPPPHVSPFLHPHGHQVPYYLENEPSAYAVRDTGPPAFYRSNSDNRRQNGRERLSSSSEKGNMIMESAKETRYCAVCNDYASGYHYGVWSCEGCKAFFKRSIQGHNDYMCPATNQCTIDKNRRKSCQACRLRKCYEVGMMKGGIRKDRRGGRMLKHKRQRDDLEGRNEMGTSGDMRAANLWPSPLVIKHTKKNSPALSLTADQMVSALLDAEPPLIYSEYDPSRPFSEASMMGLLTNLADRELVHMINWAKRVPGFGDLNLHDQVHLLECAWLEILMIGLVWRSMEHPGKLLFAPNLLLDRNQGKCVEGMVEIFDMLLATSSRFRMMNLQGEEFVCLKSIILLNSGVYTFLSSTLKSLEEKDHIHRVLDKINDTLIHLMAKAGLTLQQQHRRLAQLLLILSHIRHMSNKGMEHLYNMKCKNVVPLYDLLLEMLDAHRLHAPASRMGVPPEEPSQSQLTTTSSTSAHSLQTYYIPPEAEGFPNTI
Briefly: Relative binding affinity (RBA) to estrogen receptors, 3H-estradiol competition assay. Conditions: relative to 17-beta-estradiol (=100, percentage value); rat uterine cytosol, 3H-E2, 18 hrs at 4° C. Also on record: key: % of 17-beta-estradiol binding affinity (estradiol = 100). The protocol: The relative binding affinity (RBA) of the compounds for estrogen receptor is determined by competition assay, employing ^3H-estradiol (^3H-E2) as the radioligand. The test ligands and ^3H-E2 are incubated at 4° C. with cystol estrogen receptors obtained from uteri of immature estradoil-primed (1 μg/rat 24 h before autopsy) 20-21 days old rats. Aliquot of uterine cytosol (200 μl; 2 uteri per ml) prepared in TEA buffer (10 mM Tris, 1.5 mM EDTA, 0.02% sodium azide, pH 7.4) are incubated in duplicate with a fixed concentration of ^3H-E2 in the absence or presence of various concentrations of the competitor substance dissolved in 30 μl of the TEA buffer containing DMF as co-solvent (final concentration of DMF in the incubation mixture never exceeded 5%) for 18 hrs at 4° C. At the end of this period, dextran coated charcoal (5% Norit 0.5% dextran) suspension in 100 μl of TEA buffer is added to each tube, briefly vortexed and allowed to stand for 15 minutes at 4° C. The mixture is centrifuged at 800 g for 10 minutes and the supernatants counted for radioactivity in 10 ml of a dioxane-based scintillation fluid. RBA of the text compound is computed from a graph plotted between percent bound radioactivity verses log concentration of the test substance. […] This when multiplied with 100 gives the percentage value designated as RBA.

The structures appear in SMILES notation.

Usually melting point stands for the temperature, or range, at which the solid turns liquid. As for `c1ccc2c(c1)SCCc1c-2n(CCN2CCCCC2)c2ccccc12` [Example number 5, 12-[2-(Piperidine-1-yl)ethyl]-6,7-dihydro-12H-benzothiepino [5,4-b]indole], the melting point stood at 118 °C. Besides, the “% Efficacy” value in data set [1] is recorded as “Inactive”.
As to `c1ccc2c(c1)SCCc1c-2n(CCCCCN2CCCCC2)c2ccccc12` [Example number 11, 12-[5-(Piperidine-1-yl)pentyl]-6,7-dihydro-12H-benzothiepino [5,4-b]indole], the responders at 10 mg/kg in data set [1] (Rattus norvegicus, 240 h) came to 50%. Also, the CC50 in data set [2] came out at 8.3 µM. Besides, the activity at 100 µM in data set [3] stood at 77%. The inhibition in vivo at 10 mg/kg/day in data set [4] amounted to 2%. Further, the change in vivo at 10 mg/kg in data set [5] was determined as 50%.
As for `Oc1ccc2c(c1)c1c(n2CCCCCN2CCCC2)-c2ccccc2SCC1` [Example number 30, 9-Hydroxy-12-[5-(pyrrolidine-1-yl)pentyl]-6,7-dihydro-12H-benzothiepino [5,4-b]indole], the melting point lay in the range of 217 to 219 °C. The “% Efficacy” value in data set [1] was “Inactive”. The RBA in data set [6] is less than 0.001.
`CCCCN(C)CCCCCn1c2c(c3cc(O)ccc31)CCSc1cc(O)ccc1-2` [Example number 37] returned a melting point of 134 to 136 °C. The RBA in data set [6] came out at 0.36.
Regarding `c1ccc2c(c1)SCCc1c-2n(Cc2ccc(OCCCN3CCCCC3)cc2)c2ccccc12` [Example number 41, 12-[4-(3-Piperidin-1-yl-propyloxy)benzyl]-6,7-dihydro-12H-benzothiepino [5,4-b]indole], the melting point lay within 70 to 71 °C. For the same molecule, the “% Efficacy” value in data set [1] is recorded as “Inactive”. In addition, in data set [3], the activity at 100 µM is 108%. Further, the inhibition in vivo at 10 mg/kg/day in data set [4] came out at 6.41%. For the same molecule, the change in vivo at 10 mg/kg in data set [5] came to 42.9%.
Regarding `c1ccc2c(c1)OCCc1c-2n(CCN2CCCCC2)c2ccccc12` [Example number 45, 12-[2-(Piperidine-1-yl)ethyl]-6,7-dihydro-12H-benzoxepino[5,4-b]indole], the melting point came out at 103 °C. Moreover, the “% Efficacy” value in data set [1] was “Inactive”.
Turning to `c1ccc2c(c1)OCCc1c-2n(CCCN2CCCCC2)c2ccccc12` [Example number 47, 12-[3-(Piperidine-1-yl)propyl]-6,7-dihydro-12H-benzoxepino[5,4-b]indole], the melting point lay in the range of 65 to 66 °C. Further, in data set [1], the “% Efficacy” value is listed as “Inactive”. In data set [4], the inhibition in vivo at 10 mg/kg/day amounted to 17.2%. For the same molecule, the change in vivo at 10 mg/kg in data set [5] was found to be 8.31%.
Regarding `c1ccc2c(c1)OCCc1c-2n(Cc2ccc(OCCN3CCCCC3)cc2)c2ccccc12` [Example number 56, 12-[4-(2-Piperidin-1-yl-ethoxy)benzyl]-6,7-dihydro-12H-benzoxepino[5,4-b]indole], in data set [1], the “% Efficacy” value is listed as “Inactive”. Besides, in data set [3], the activity at 100 µM is 103%. For the same molecule, in data set [4], the inhibition in vivo at 10 mg/kg/day amounted to 12.8%. Besides, the change in vivo at 10 mg/kg in data set [5] turned out to be 15.4%.
For `c1ccc2c(c1)OCCc1c-2n(Cc2ccc(OCCCN3CCCCC3)cc2)c2ccccc12` [Example number 58, 12-[4-(3-Piperidin-1-yl-propyloxy)benzyl]-6,7-dihydro-12H-benzoxepino[5,4-b]indole], the melting point is 129 to 130 °C. In data set [1], the “% Efficacy” value is given as “Inactive”. For the same molecule, in data set [3], the activity at 100 µM worked out at 98%. The inhibition in vivo at 10 mg/kg/day in data set [4] was found to be 11.4%. Also, the change in vivo at 10 mg/kg in data set [5] is 7.85%.
